Test results taken from patent US20090197853A1, “METHODS AND COMPOSITIONS OF TREATING CANCER” (priority 2005, published 2009).
“Also recorded” adds a separate entry of the source. Starred links: 1 amine or outer side, 2 acyl side, 3 side chain; linkers in the order of their positions; H or OH if unused. Positions of bridges follow the written chain, without caps; N, C: chain ends. Non-standard residues stand in square brackets, D forms with d. Residues, ends and D or L forms follow the SMILES beside them. Chains are numbered I, II in the order given. Actinocin(9to1) = Cc1c2oc3c(C)ccc(C(=O)[*:1])c3nc-2c(C(=O)[*:2])c(N)c1=O; NMeV = CN[C@H](C(=O)O)C(C)C; Sar = CNCC(=O)O

What was measured:
A549 cells = experiment: Cell viability by propidium iodide exclusion, A549; conditions: A549, 24 hours; Zn(OAc)2 100 μM, CdCl2 50 μM, MGd 50 μM
[1] = test system: metallothionein gene family members and ZnT1; experiment: Northern blot analysis, A549 cultures; type: cell-based, human; conditions: for Metallothionein transcript levels: A549, 24 hours, 50 μM MGd, Zn(OAc)2 100 μM, CdCl2 50 μM, FIG. 2B
Procedure: Methods: Northern Blot Analysis—Plateau phase cultures of A549 cells were prepared as described above, except that T-25 flasks were used, and the number of cells initially plated scaled accordingly. Cultures were treated with 50 μM MGd, 5 μM Gd(OAc)3 or 5% mannitol for 4 hours, whereupon cultures were washed twice with PBS and RNA harvested as above. Alternatively, 7-day plateau phase A549 or PC3 cultures were treated with 50 μM MGd, 50-100 μM Zn(OAc)2, 50 μM CdCl2 or 5% mannitol for 24 hours (A549) or 4 hours (PC3) prior to washing and RNA analysis. Exponential phase Ramos cultures were treated for 6 hours. Northern blots were conducted and analyzed. Radio labeled metallothionein probe, designed to bind to a 113-bp region of 3′-UTR sequences from multiple metallothionein gene family members, was generated using 5′-[…]-3′ (forward) and 5′-[…]-3′ (reverse) PCR primers and the NEBlot kit (New England Biolabs, Inc.). Radio labeled ZnT1 probe was generated in a similar fashion using 5′-[…]-3′ (forward) and 5′-[…]-3′ (reverse) primers.

Thioredoxin reductase = experiment: Lipoate reduction (thioredoxin reductase activity) in intact A549 cells; type: cell-based, human; conditions: A549; actinomycin D 2.5 μg/mL or cycloheximide 10 μg/mL 1 hour prior, BSO 100 μM 24 hours prior
Procedure: Methods: Lipoate Reduction. Thioredoxin reductase activity was assessed by measuring the rate of lipoate reduction. In brief, A549 or PC3 cells (10,000 cells/well) were plated on 96-well plates and allowed to adhere overnight and grow two additional days until confluent. Cells were treated with MGd, zinc, or 5% mannitol for 2-4 hours, as indicated. Medium was removed, cells were washed with Hanks Balanced Salt Solution (HBSS), and a solution of 5 mM lipoic acid and 1 mM 5,5′-dithiobis(2-nitrobenzoic acid) in HBSS (100 μL/well) was added. Plates were incubated at ambient temperature in the dark. At chosen time intervals, plate absorbance was measured at 405-650 nm. Plate absorbances were normalized to wells containing neither exogenous zinc nor texaphyrin complex to allow plate-to-plate comparison. In some experiments, L-buthionine-[S,R]-sulfoximine (BSO, 100 μM) was added 24 hours prior to MGd or zinc treatment, to inhibit any contribution to lipoate reduction made by glutathione-dependent pathways (28). Actinomycin D (2.5 μg/mL) or cycloheximide (10 μg/mL), where present, was added 1 hour prior to texaphyrin or zinc treatment. Viability was checked on parallel plates using the tetrazolium dye 3-(4,5-dimethylthiazol-2-yl)-5-(3-carboxymethoxyphenyl)-2-(4-sulfophenyl)-2H-tetrazolium (MTS) following the manufacturers protocol (Promega Corp.).

Ramos cells [2] = experiment: Cell cycle analysis (BrdU / 7-AAD), Ramos; type: cell-based; conditions: for Cell cycle distribution / progression: Ramos; for BrdU incorporation into DNA: comparison treatments
Procedure: Methods: […] Thirty minutes prior to harvest, cultures were treated with 5-bromo-2′-deoxyuridine (BrdU) at a final concentration of 10 μM. Cells were isolated by centrifugation, washing once with 0.5% BSA in PBS, and the resulting cell pellets fixed using 0.5 mL Cytofix/Cytoperm reagent (BD Biosciences). […] Cells were stained using a fluorescein-conjugated anti-BrdU antibody (clone PRB1, E-Bioscience, San Diego, Calif.) and 7-AAD. Cell cycle occupancy was analyzed by flow cytometry using fluorescein signal as a measure of DNA synthesis and 7-AAD signal as a measure of DNA content. […] L. Shepherd & Assoc., San Fernando, Calif.).

Ramos cells [3] = experiment: Intracellular free zinc (FluoZin-3 fluorescence), Ramos; type: cell-based; conditions: hydrogen peroxide treatment
Procedure: Methods: Intracellular Free Zinc. The concentration of intracellular free zinc was assessed using the ion-specific fluorescent probe, FluoZin-3-AM™ (FluoZin-3, Molecular Probes, Inc.). […] Following treatment, cells were isolated by centrifugation. Cell pellets were washed and re-suspended in a solution of 0.5% BSA in PBS.

Ramos cells [4] = experiment: Reactive oxygen species (DCFA to DCF), Ramos; type: cell-based; conditions: single agents
Procedure: Methods: Reactive oxygen species were measured in live cells as intracellular peroxides by monitoring the oxidation of 2′,7′-dichlorofluorescin-diacetate (DCFA) to 2′,7′-dichlorofluorescein (DCF) (Molecular Probes). Cells (1×10^6 per mL) were incubated in a solution of 1 μg per mL DCFA in 0.5% BSA in HBSS for 15 minutes at 37° C. Two mL additional 0.5% BSA in HBSS was added, cells were isolated by centrifugation, and the pellet re-suspended in a solution of 50 μg/mL 7-aminoactinomycin D (7-AAD) in 0.5% BSA in HBSS. Cell suspensions were incubated at ambient temperature for 2 to 3 minutes, and stored on ice until analysis. The fluorescent intensity in live (i.e., 7-AAD impermeable) cells was analyzed by flow cytometry.

HIF-1α = HIF-1α sandwich ELISA, Ramos; type: cell-based; conditions: four hours
Procedure: Methods: Total HIF-1α protein was detected by sandwich ELISA using the DuoSet IC™ HIF-1α ELISA kit obtained from R&D Systems (Minneapolis, Minn.). All incubations were carried out at ambient temperature. Briefly, 96-well plates were coated with HIF-1α capture antibody overnight prior to blocking with 5% BSA in wash buffer. Protein lysates (50 μg protein per well prepared according to the manufacturer's instructions) were added for 2 hours, whereupon plates were washed and a biotinylated detection antibody specific for HIF-1α was added. A streptavidin-horseradish peroxidase format was used for detection. The optical density at 450 minus […] was measured using a microplate reader (SpectraMax Plus, Molecular Devices, Palo Alto, Calif.). HIF-1α concentrations were calculated by linear regression using a standard curve prepared from HIF-1α standard supplied with the ELISA kit.

[Cl][Cd][Cl] [CdCl2, reference compound]
Cellular viability (propidium iodide exclusion) (A549 cells): ca. 53%
Metallothionein transcript levels [1]: significant increase
Metallothionein transcript levels ([1]; listed as cadmium): raised; also recorded: high levels of metallothionein transcription

Cc1c2oc3c(C)ccc(C(=O)N[C@@H]4C(=O)N[C@H](C(C)C)C(=O)N5CCC[C@H]5C(=O)N(C)CC(=O)N(C)[C@@H](C(C)C)C(=O)O[C@@H]4C)c3nc-2c(C(=O)N[C@@H]2C(=O)N[C@H](C(C)C)C(=O)N3CCC[C@H]3C(=O)N(C)CC(=O)N(C)[C@@H](C(C)C)C(=O)O[C@@H]2C)c(N)c1=O [actinomycin D, reference compound] (I: T[dV]P[Sar][NMeV] / II: T[dV]P[Sar][NMeV]; ester I:1-I:C, II:1-II:C; linker I:N-II:N via Actinocin(9to1))
Effect of pre-treatment on the inhibition of lipoate reduction by MGd and zinc (Thioredoxin reductase): restored the inhibitory effect

CC(=O)[O-].CC(=O)[O-].CC(=O)[O-].[Gd+3] [Gd(OAc)3, gadolinium acetate, reference compound]
Induction of metallothionein gene family members and ZnT1 (Northern blot) ([1]; A549 plateau phase, 4 hours, 50 μM MGd or 5 μM Gd(OAc)3): induced only in cultures treated with MGd

NC(=O)NO [hydroxyurea]
Cell cycle distribution / progression (Ramos cells [2]): allowed passage through G2M
BrdU incorporation into DNA (Ramos cells [2]): inhibited BrdU incorporation

CCCCS(=N)(=O)CCC(N)C(=O)O [BSO, L-buthionine-[S,R]-sulfoximine, reference compound]
Effect of pre-treatment on the inhibition of lipoate reduction by MGd and zinc (Thioredoxin reductase): increased the degree of inhibition

OO [hydrogen peroxide, reference compound]
FluoZin-3 fluorescence (Ramos cells [3]): increased
DCF signal (Ramos cells [4]): increased

C[C@@H]1C[C@@H]([C@H](O)CC2CC(=O)NC(=O)C2)C(=O)[C@@H](C)C1 [cycloheximide, reference compound]
Effect of pre-treatment on the inhibition of lipoate reduction by MGd and zinc (Thioredoxin reductase): restored the inhibitory effect

O=c1[nH]c(=O)n([C@H]2C[C@H](O)[C@@H](CO)O2)cc1F [5-fluoro-2′-deoxyuridine]
Cell cycle distribution / progression (Ramos cells [2]): accumulation of cells in G1/S
BrdU incorporation into DNA (Ramos cells [2]): permitted BrdU incorporation into DNA

CC(=O)[O-].CC(=O)[O-].[Co+2] [cobalt acetate]
Increase in total cellular HIF-1α levels (HIF-1α): increased
